Values quoted from earlier work in patent US20110189281A1, “TELMISARTAN AND HYDROCHLOROTHIAZIDE COMBINATION THERAPY” (BOEHRINGER INGELHEIM INTERNATIONAL GMBH, priority 2004, published 2011).

Conditions: physiological pH range of the gastrointestinal tract, pH 1 to 7; free acid form

Solubility in aqueous systems: very poor solubility
SMILES: CCCc1nc2c(C)cc(-c3nc4ccccc4n3C)cc2n1Cc1ccc(-c2ccccc2C(=O)O)cc1 [Telmisartan, 4′-[(1,4′-dimethyl-2′-propyl-[2,6′-bi-1H-benzimidazol]-1′-yl)methyl]-[1,1′-biphenyl]-2-carboxylic acid]
